Results published in patent US20190136321A1, “USE OF TRANSLATIONAL PROFILING TO IDENTIFY TARGET MOLECULES FOR THERAPEUTIC TREATMENT” (The Regents of The University of California, priority 2013, published 2019).

Assays:
Format in all cases: cell-based, human
SW620 cells [1] = assay: Western blot of phosphorylation of protein translation components in SW620 cells
Description: (§1) SW620 cells (ATCC, passage 12) were seeded at about 75% confluence 24 hrs prior to drug treatment. […] About 6×10^6 cells/10 cm plate and about 1×10^6 cells/well of a 6-well plate were harvested for ribosome profiling and Western blot analysis, respectively, following drug treatment.
Cells were washed with PBS and lysed in 1× cell lysis buffer (Cell Signaling) for 15 min at 4° C. Lysates were sonicated briefly, clarified by centrifugation for 15 min at 14, 000 rpm, and supernatants were then collected. Protein concentration in the soluble fraction was determined by BCA protein assay (Thermo Scientific). A 4-20% Bis-Tris gradient gel (Invitrogen) was used to resolve 20 μg of protein and transferred to nitrocellulose membrane. The resulting membranes were blocked for 1 hr at room temperature with Odyssey blocking solution (LI-COR) and then incubated with primary antibodies at 4° C. overnight. The following day, the blots were washed 3 times, 10 min each in TBST, and incubated with IR-conjugated goat anti-rabbit IgG secondary antibody (IRDye 800 CW at 1:20,000; LI-COR) for 1 hour at room temperature. The blots were then washed, scanned, and specific proteins were detected using the LI-COR Odyssey infrared imager. The following antibodies from Cell Signaling were used at 1:1000 dilution: anti-phospho-eIF4E(Ser209)(#9741), anti-phospho-rpS6(Ser235/236)(#4858), anti-phospho-ERK1/2(Thr202/Tyr204)(#4370), anti-phospho-p70S6K(Thr421/Ser424)(#9204), anti-phospho-p90RSK(Thr359/Ser363)(#9344), anti-phospho-4EBP(Ser65), anti-phospho-pAKT(Ser473), anti-phospho-eIF4E(Ser209), and anti-β-actin (#4970). Actin was used as a loading amount control.

SW620 cells [2] = assay: Proliferation assay on SW620 cells
SW620 cells [3] = assay: Ribosome profiling of SW620 cells (transcription, translational rate, translational efficiency); conditions: 8 hours
Description: SW620 human colon cancer cells were cultured in DMEM media supplemented with penicillin G (100 U/ml), streptomycin (100 μg/ml), and 10% FBS in a humidified atmosphere of 5% CO2 maintained at 37° C.
as §1

With `CC(=O)Nc1cccc(-n2c(=O)n(C3CC3)c(=O)c3c(Nc4ccc(I)cc4F)n(C)c(=O)c(C)c32)c1` [GSK212] the “phosphorylation of S6, eIF4E and 4EBP1” value (SW620 cells [1]; 25 nM to 100 nM (data not shown)) was “little or no effect”, the “Phosphorylation of ERK and p90RSK” value (SW620 cells [1]; 250 nM, 8 hrs) was “completely inhibited” and the “phosphorylation of eIF4E” value (SW620 cells [1]; 250 nM, 8 hrs) was “partial inhibition”. For the same molecule, the “phosphorylation of the ribosomal protein S6 (rpS6) and S6K (p70RSK)” value (SW620 cells [1]; 250 nM, 8 hrs) was “only partial inhibition”, the “inhibition of proliferation or induction of apoptosis” value (SW620 cells [2]; 250 nM for 8 hours) was “No evidence” and the “potency in 72 hour proliferation assays” value (SW620 cells [2]; 72 hour (data not shown)) was 20 to 30 nM. The “Profile TE” value (SW620 cells [3]; gene ARID5A, 250 nM) was −0.4 log2 MEKi/DMSO, the Profile rna (SW620 cells [3]; gene ARID5A, 250 nM) was −0.5 log2 MEKi/DMSO and the Profile rpf (SW620 cells [3]; gene ARID5A, 250 nM) was −0.9 log2 MEKi/DMSO. The “Profile TE” value (SW620 cells [3]; gene B4GALT6, 250 nM) was 0.0 log2 MEKi/DMSO, the Profile rna (SW620 cells [3]; gene B4GALT6, 250 nM) was 0.0 log2 MEKi/DMSO and the Profile rpf (SW620 cells [3]; gene B4GALT6, 250 nM) was −0.1 log2 MEKi/DMSO. For the same molecule, the “Profile TE” value (SW620 cells [3]; gene BXDC2/BRIX1, 250 nM) was 0.2 log2 MEKi/DMSO, the Profile rna (SW620 cells [3]; gene BXDC2/BRIX1, 250 nM) was −1.1 log2 MEKi/DMSO and the Profile rpf (SW620 cells [3]; gene BXDC2/BRIX1, 250 nM) was −0.8 log2 MEKi/DMSO. The “Profile TE” value (SW620 cells [3]; gene BYSL, 250 nM) was 0.2 log2 MEKi/DMSO, the Profile rna (SW620 cells [3]; gene BYSL, 250 nM) was −0.8 log2 MEKi/DMSO and the Profile rpf (SW620 cells [3]; gene BYSL, 250 nM) was −0.6 log2 MEKi/DMSO. The “Profile TE” value (SW620 cells [3]; gene CCND1, 250 nM) was −0.3 log2 MEKi/DMSO, the Profile rna (SW620 cells [3]; gene CCND1, 250 nM) was −1.8 log2 MEKi/DMSO and the Profile rpf (SW620 cells [3]; gene CCND1, 250 nM) was −2.0 log2 MEKi/DMSO. For the same molecule, the “Profile TE” value (SW620 cells [3]; gene CD3EAP, 250 nM) was −0.5 log2 MEKi/DMSO, the Profile rna (SW620 cells [3]; gene CD3EAP, 250 nM) was −0.6 log2 MEKi/DMSO and the Profile rpf (SW620 cells [3]; gene CD3EAP, 250 nM) was −1.1 log2 MEKi/DMSO. The “Profile TE” value (SW620 cells [3]; gene CHSY1, 250 nM) was −0.7 log2 MEKi/DMSO, the Profile rna (SW620 cells [3]; gene CHSY1, 250 nM) was 0.0 log2 MEKi/DMSO and the Profile rpf (SW620 cells [3]; gene CHSY1, 250 nM) was −0.7 log2 MEKi/DMSO. For the same molecule, the “Profile TE” value (SW620 cells [3]; gene DDX21, 250 nM) was −0.6 log2 MEKi/DMSO, the Profile rna (SW620 cells [3]; gene DDX21, 250 nM) was −0.3 log2 MEKi/DMSO and the Profile rpf (SW620 cells [3]; gene DDX21, 250 nM) was −1.0 log2 MEKi/DMSO. The “Profile TE” value (SW620 cells [3]; gene DUSP4, 250 nM) was −0.4 log2 MEKi/DMSO, the Profile rna (SW620 cells [3]; gene DUSP4, 250 nM) was −2.0 log2 MEKi/DMSO and the Profile rpf (SW620 cells [3]; gene DUSP4, 250 nM) was −2.4 log2 MEKi/DMSO. For the same molecule, the “Profile TE” value (SW620 cells [3]; gene DUSP6, 250 nM) was −3.1 log2 MEKi/DMSO, the Profile rna (SW620 cells [3]; gene DUSP6, 250 nM) was −6.3 log2 MEKi/DMSO and the Profile rpf (SW620 cells [3]; gene DUSP6, 250 nM) was −9.3 log2 MEKi/DMSO. For the same molecule, the “Profile TE” value (SW620 cells [3]; gene EGR1, 250 nM) was −3.1 log2 MEKi/DMSO, the Profile rna (SW620 cells [3]; gene EGR1, 250 nM) was −1.0 log2 MEKi/DMSO and the Profile rpf (SW620 cells [3]; gene EGR1, 250 nM) was −4.1 log2 MEKi/DMSO. The “Profile TE” value (SW620 cells [3]; gene ELOVL6, 250 nM) was 0.6 log2 MEKi/DMSO, the Profile rna (SW620 cells [3]; gene ELOVL6, 250 nM) was −1.4 log2 MEKi/DMSO and the Profile rpf (SW620 cells [3]; gene ELOVL6, 250 nM) was −0.8 log2 MEKi/DMSO. For the same molecule, the Profile rna (SW620 cells [3]; gene ETV1, 250 nM) was −3.5 log2 MEKi/DMSO, the “Profile TE” value (SW620 cells [3]; gene ETV4, 250 nM) was −0.6 log2 MEKi/DMSO and the Profile rna (SW620 cells [3]; gene ETV4, 250 nM) was −2.2 log2 MEKi/DMSO. The Profile rpf (SW620 cells [3]; gene ETV4, 250 nM) was −2.8 log2 MEKi/DMSO, the “Profile TE” value (SW620 cells [3]; gene ETV5, 250 nM) was −3.0 log2 MEKi/DMSO and the Profile rna (SW620 cells [3]; gene ETV5, 250 nM) was −2.6 log2 MEKi/DMSO. The Profile rpf (SW620 cells [3]; gene ETV5, 250 nM) was −5.6 log2 MEKi/DMSO, the “Profile TE” value (SW620 cells [3]; gene FLJ10534/TSR1, 250 nM) was −0.6 log2 MEKi/DMSO and the Profile rna (SW620 cells [3]; gene FLJ10534/TSR1, 250 nM) was −0.3 log2 MEKi/DMSO. For the same molecule, the Profile rpf (SW620 cells [3]; gene FLJ10534/TSR1, 250 nM) was −0.8 log2 MEKi/DMSO, the “Profile TE” value (SW620 cells [3]; gene FOS, 250 nM) was 0.2 log2 MEKi/DMSO and the Profile rna (SW620 cells [3]; gene FOS, 250 nM) was −2.9 log2 MEKi/DMSO. The Profile rpf (SW620 cells [3]; gene FOS, 250 nM) was −2.7 log2 MEKi/DMSO, the “Profile TE” value (SW620 cells [3]; gene FOSL1, 250 nM) was −0.5 log2 MEKi/DMSO and the Profile rna (SW620 cells [3]; gene FOSL1, 250 nM) was −3.6 log2 MEKi/DMSO. The Profile rpf (SW620 cells [3]; gene FOSL1, 250 nM) was −4.1 log2 MEKi/DMSO, the “Profile TE” value (SW620 cells [3]; gene GEMIN4, 250 nM) was −0.5 log2 MEKi/DMSO and the Profile rna (SW620 cells [3]; gene GEMIN4, 250 nM) was −0.1 log2 MEKi/DMSO. For the same molecule, the Profile rpf (SW620 cells [3]; gene GEMIN4, 250 nM) was −0.6 log2 MEKi/DMSO, the “Profile TE” value (SW620 cells [3]; gene GNL3, 250 nM) was −0.2 log2 MEKi/DMSO and the Profile rna (SW620 cells [3]; gene GNL3, 250 nM) was −0.7 log2 MEKi/DMSO. The Profile rpf (SW620 cells [3]; gene GNL3, 250 nM) was −0.8 log2 MEKi/DMSO, the Profile rpf (SW620 cells [3]; gene GPR3, 250 nM) was −2.8 log2 MEKi/DMSO and the “Profile TE” value (SW620 cells [3]; gene GTPBP4, 250 nM) was −0.3 log2 MEKi/DMSO. For the same molecule, the Profile rna (SW620 cells [3]; gene GTPBP4, 250 nM) was −0.4 log2 MEKi/DMSO, the Profile rpf (SW620 cells [3]; gene GTPBP4, 250 nM) was −0.7 log2 MEKi/DMSO and the “Profile TE” value (SW620 cells [3]; gene HMGA2, 250 nM) was 1.2 log2 MEKi/DMSO. For the same molecule, the Profile rna (SW620 cells [3]; gene HMGA2, 250 nM) was −2.9 log2 MEKi/DMSO, the Profile rpf (SW620 cells [3]; gene HMGA2, 250 nM) was −1.7 log2 MEKi/DMSO and the “Profile TE” value (SW620 cells [3]; gene HSPC111/NOP16, 250 nM) was 0.6 log2 MEKi/DMSO. For the same molecule, the Profile rna (SW620 cells [3]; gene HSPC111/NOP16, 250 nM) was −1.5 log2 MEKi/DMSO and the Profile rpf (SW620 cells [3]; gene HSPC111/NOP16, 250 nM) was −0.9 log2 MEKi/DMSO.
